Data from patent publication US20190100534A1, “Cephem Compounds with Latent Reactive Groups” (Gladius Pharmaceuticals, Inc., priority 2017, published 2019).

Experiments:
Assay in all cases: MIC determination
[1] = tested on: EC (URMC-2); format: cell-based, Escherichia coli; conditions: Escherichia coli, CAMH broth, 20 μM Apo-Transferrin, 37° C., 18 hours, read-out: Minimum Inhibitory Concentrations, EC (URMC-2)
Summary of the method: (§1)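 Broth microdilution in cation-adjusted Mueller-Hinton broth with 20 μM apo-transferrin, two-fold compound series from 64 μg/mL, inoculum adjusted to 0.5 McFarland from 4-5 h LB cultures. Plates incubated 18 h at 37 °C. MIC taken as lowest concentration leaving a clear well.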

[2] = tested on: EC (RR -1); format: cell-based, Escherichia coli; conditions: CAMH broth, 20 μM Apo-Transferrin, 37° C., 18 hours
Summary of the method: as §1

[3] = tested on: EC (RR -2); format: cell-based, Escherichia coli; conditions: CAMH broth, 20 μM Apo-Transferrin, 37° C., 18 hours
Summary of the method: as §1

[4] = tested on: EC(ATCC NDM-1); format: cell-based, Escherichia coli; conditions: Escherichia coli, CAMH broth, 20 μM Apo-Transferrin, 37° C., 18 hours, read-out: Minimum Inhibitory Concentrations, EC(ATCC NDM-1)
Summary of the method: as §1

[5] = tested on: EC(KB2 CTX-M-15); format: cell-based, Escherichia coli; conditions: Escherichia coli, CAMH broth, 20 μM Apo-Transferrin, 37° C., 18 hours, read-out: Minimum Inhibitory Concentrations, EC(KB2 CTX-M-15)
Summary of the method: as §1

[6] = tested on: EC (URMC-3); format: cell-based, Escherichia coli; conditions: Escherichia coli, CAMH broth, 20 μM Apo-Transferrin, 37° C., 18 hours, read-out: Minimum Inhibitory Concentrations, EC (URMC-3)
Summary of the method: as §1

[7] = tested on: EC(JMI OXA-48); format: cell-based, Escherichia coli; conditions: Escherichia coli, CAMH broth, 20 μM Apo-Transferrin, 37° C., 18 hours, read-out: Minimum Inhibitory Concentrations, EC(JMI OXA-48)
Summary of the method: as §1

[8] = tested on: EC(KB1 CTX-M-15); format: cell-based, Escherichia coli; conditions: Escherichia coli, CAMH broth, 20 μM Apo-Transferrin, 37° C., 18 hours, read-out: Minimum Inhibitory Concentrations, EC(KB1 CTX-M-15)
Summary of the method: as §1

[9] = tested on: EC (URMC-1); format: cell-based, Escherichia coli; conditions: Escherichia coli, CAMH broth, 20 μM Apo-Transferrin, 37° C., 18 hours, read-out: Minimum Inhibitory Concentrations, EC (URMC-1)
Summary of the method: as §1

[10] = tested on: A. baumannii; format: cell-based, Acinetobacter baumannii; conditions: for MIC: Acinetobacter baumannii, A. baumannii, CAMH broth, 20 μM Apo-Transferrin, 37° C., 18 hours, read-out: Minimum Inhibitory Concentrations, A. baumannii
Summary of the method: as §1

[11] = tested on: A. baumannii (JMI OXA-58); format: cell-based, Acinetobacter baumannii; conditions: Acinetobacter baumannii, class D carbapenemase producer, CAMH broth, 20 μM Apo-Transferrin, 37° C., 18 hours, read-out: Minimum Inhibitory Concentrations, A. baumannii (JMI OXA-58)
Summary of the method: as §1

[12] = tested on: Pseudomonas aeruginosa PA (URMC-3); format: cell-based; conditions: Pseudomonas aeruginosa; PA (URMC-3); CAMH broth, 20 μM Apo-Transferrin, 37° C., 18 hours; read-out: Minimum Inhibitory Concentrations, PA (URMC-3)
Summary of the method: as §1

[13] = tested on: Pseudomonas aeruginosa PA-RR-(G7294437); format: cell-based; conditions: Pseudomonas aeruginosa; PA-RR-(G7294437); CAMH broth, 20 μM Apo-Transferrin, 37° C., 18 hours; read-out: Minimum Inhibitory Concentrations, PA-RR-(G7294437)
Summary of the method: as §1

[14] = tested on: Pseudomonas aeruginosa PA (URMC-2); format: cell-based; conditions: Pseudomonas aeruginosa; PA (URMC-2); CAMH broth, 20 μM Apo-Transferrin, 37° C., 18 hours; read-out: Minimum Inhibitory Concentrations, PA (URMC-2)
Summary of the method: as §1

[15] = tested on: Pseudomonas aeruginosa (PA); format: cell-based; conditions: Pseudomonas aeruginosa; PA; CAMH broth, 20 μM Apo-Transferrin, 37° C., 18 hours; read-out: Minimum Inhibitory Concentrations, PA
Summary of the method: as §1

[16] = tested on: Pseudomonas aeruginosa PA-RR-(98023895); format: cell-based; conditions: Pseudomonas aeruginosa; PA-RR-(98023895); CAMH broth, 20 μM Apo-Transferrin, 37° C., 18 hours; read-out: Minimum Inhibitory Concentrations, PA-RR-(98023895)
Summary of the method: as §1

[17] = tested on: Pseudomonas aeruginosa PA-RR-(G7304100); format: cell-based; conditions: Pseudomonas aeruginosa; PA-RR-(G7304100); CAMH broth, 20 μM Apo-Transferrin, 37° C., 18 hours; read-out: Minimum Inhibitory Concentrations, PA-RR-(G7304100)
Summary of the method: as §1

[18] = tested on: EA (URMC -3); format: cell-based; conditions: CAMH broth, 20 μM Apo-Transferrin, 37° C., 18 hours
Summary of the method: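 Organisms grown in LB at 37 °C to OD600 >0.1, adjusted to 0.08-0.1 OD600 in CAMH broth. Compounds two-fold serially diluted from 64 μg/mL in CAMH broth with 20 μM apo-transferrin; plates incubated 18 h at 37 °C. MIC taken as lowest concentration giving a transparent well.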

[19] = tested on: ENC (ATCC NDM-1); format: cell-based, Enterobacter cloacae; conditions: CAMH broth, 20 μM Apo-Transferrin, 37° C., 18 hours
Summary of the method: as §1

[20] = tested on: KP (ATCC KPC-3); format: cell-based, Klebsiella pneumoniae; conditions: CAMH broth, 20 μM Apo-Transferrin, 37° C., 18 hours
Summary of the method: as §1

[21] = tested on: KP (URMC-2); format: cell-based, Klebsiella pneumoniae; conditions: CAMH broth, 20 μM Apo-Transferrin, 37° C., 18 hours
Summary of the method: as §1

[22] = tested on: KP(GJ 5934 TEM-26); format: cell-based, Klebsiella pneumoniae; conditions: CAMH broth, 20 μM Apo-Transferrin, 37° C., 18 hours
Summary of the method: as §1

[23] = tested on: KP(JMI KPC-2); format: cell-based, Klebsiella pneumoniae; conditions: CAMH broth, 20 μM Apo-Transferrin, 37° C., 18 hours
Summary of the method: as §1

[24] = tested on: KP (URMC-1); format: cell-based, Klebsiella pneumoniae; conditions: CAMH broth, 20 μM Apo-Transferrin, 37° C., 18 hours
Summary of the method: as §1

[25] = tested on: KP (GJ 5659 TEM-26); format: cell-based, Klebsiella pneumoniae; conditions: CAMH broth, 20 μM Apo-Transferrin, 37° C., 18 hours
Summary of the method: as §1

[26] = tested on: KP (RR -1); format: cell-based, Klebsiella pneumoniae; conditions: CAMH broth, 20 μM Apo-Transferrin, 37° C., 18 hours
Summary of the method: as §1

[27] = tested on: KP (URMC-3); format: cell-based, Klebsiella pneumoniae; conditions: CAMH broth, 20 μM Apo-Transferrin, 37° C., 18 hours
Summary of the method: as §1

Structure (SMILES)	MIC [1]	Mimimum Inhibitory Concentrations, EC (RR -1) [2]	Mimimum Inhibitory Concentrations, EC (RR -2) [3]	MIC [4]	MIC [5]	MIC [6]	MIC [7]	MIC [8]	MIC [9]	MIC [10]	MIC [11]	MIC [12]	MIC [13]	MIC [14]	MIC [15]	MIC [16]	MIC [17]	Mimimum Inhibitory Concentrations, EA (URMC -3) [18]	Mimimum Inhibitory Concentrations, ENC (ATCC NDM-1) [19]	Minimum Inhibitory Concentrations, KP (ATCC KPC-3) [20]	also measured
CC(C)(O/N=C(\C(=O)N[C@@H]1C(=O)N2C(C(=O)O)=C(C=Cc3ccc(C[N+]4(C)Cc5c(Cl)c(O)c(O)c(Cl)c5C4)cc3)CS[C@H]12)c1csc(N)n1)C(=O)O (mixture of isomers) [Compound 431, 2-(4-((E/Z)-2-((6R,7R)-7-((Z)-2-(2-aminothiazol-4-yl)-2-(((2-carboxypropan-2-yl)oxy)imino)acetamido)-2-carboxy-8-oxo-5-thia-1-azabicyclo[4.2.0]oct-2-en-3-yl)vinyl)benzyl)-4,7-dichloro-5,6-dihydroxy-2-methylisoindolin-2-ium]	≤ 0.06 µg/mL	≤0.06 microgram/mL	≤0.06 microgram/mL	> 64 µg/mL	2 µg/mL	0.25 µg/mL	0.5 µg/mL	2 µg/mL	0.25 µg/mL	1 µg/mL	> 64 µg/mL	1 µg/mL	≤ 0.06 µg/mL	≤ 0.06 µg/mL	0.25 µg/mL	4 µg/mL	≤ 0.06 µg/mL	1 microgram/mL	>64 microgram/mL	>64 microgram/mL	MICs for an Acinetobacter baumannii strain, in words ([10]; review of Table 2): low microgram/mL MICs; Minimum Inhibitory Concentrations, KP (URMC-2) [21]: 0.13 microgram/mL; Minimum Inhibitory Concentrations, KP(GJ 5934 TEM-26) [22]: 0.5 microgram/mL; Minimum Inhibitory Concentrations, KP(JMI KPC-2) [23]: 8 microgram/mL; Minimum Inhibitory Concentrations, KP (URMC-1) [24]: 0.25 microgram/mL; Minimum Inhibitory Concentrations, KP (GJ 5659 TEM-26) [25]: 0.5 microgram/mL; Mimimum Inhibitory Concentrations, KP (RR -1) [26]: 0.13 microgram/mL; Minimum Inhibitory Concentrations, KP (URMC-3) [27]: ≤0.06 microgram/mL
CC(C)(O/N=C(\C(=O)N[C@@H]1C(=O)N2C(C(=O)O)=C(C=Cc3ccc(C[N+]4(C)CCc5c(Cl)c(O)c(O)c(Cl)c5C4)cc3)CS[C@H]12)c1csc(N)n1)C(=O)O (mixture of isomers) [Compound 429, 2-(4-((E/Z)-2-((6R,7R)-7-((Z)-2-(2-aminothiazol-4-yl)-2-(((2-carboxypropan-2-yl)oxy)imino)acetamido)-2-carboxy-8-oxo-5-thia-1-azabicyclo[4.2.0]oct-2-en-3-yl)vinyl)benzyl)-5,8 dichloro-6,7-dihydroxy-2-methyl-1,2,3,4-tetrahydroisoquinolin-2-ium]	0.13 µg/mL	≤0.06 microgram/mL	≤0.06 microgram/mL	> 64 µg/mL	8 µg/mL	0.5 µg/mL	2 µg/mL	8 µg/mL	0.5 µg/mL	2 µg/mL	> 64 µg/mL	0.5 µg/mL	≤ 0.06 µg/mL	0.5 µg/mL	0.25 µg/mL	4 µg/mL	≤ 0.06 µg/mL	2 microgram/mL	>64 microgram/mL	>64 microgram/mL	Minimum Inhibitory Concentrations, KP (URMC-2) [21]: ≤0.06 microgram/mL; Minimum Inhibitory Concentrations, KP(GJ 5934 TEM-26) [22]: 0.5 microgram/mL; Minimum Inhibitory Concentrations, KP(JMI KPC-2) [23]: 16 microgram/mL; Minimum Inhibitory Concentrations, KP (URMC-1) [24]: ≤0.06 microgram/mL; Minimum Inhibitory Concentrations, KP (GJ 5659 TEM-26) [25]: 0.5 microgram/mL; Mimimum Inhibitory Concentrations, KP (RR -1) [26]: 0.25 microgram/mL; Minimum Inhibitory Concentrations, KP (URMC-3) [27]: ≤0.06 microgram/mL
